Consider one compound from US20250281449A1, “NITROGEN-CONTAINING ANALOGS OF SALINOMYCIN FOR USE IN MULTIPLE MYELOMA (MM)” (Centre National de la Recherche Scientifique, priority 2021, published 2025).

The structures appear in SMILES notation.

What all share (format): cell-based, human
The subject of one series is MYC. Put plainly: Western blot of MYC protein level. The note with it: 24H. The protocol: Cells were treated with iron chelators (80 μM Deferasirox), and Ironomycin (IC50 and 200 nM) during 24H. Protein levels of MMSET (isoforms I and II), MYC, H3K36me3 and H3K27me3 were analyzed by western blot. MMSET (isoforms I and II) and MYC signal were normalized by α-tubulin protein level, H3K36me3 and H3K27me3 signal were normalized by total histone 3 protein level.
The total cell lysates were obtained with RIPA 1× lysis buffer (#9806, Cell Signaling®) according with the supplier recommendations.
Protein lysates migrate on 10% polyacrylamide gel (NP-0301, Novex, Life Technologies®), in MOPS 1× running buffer (NP0001, Novex, Life Technologies®) or MES 1× running buffer NP-0002, Novex, Life Technologies®) and proteins are transferred to nitrocellulose membrane (1B301001, I-Blot Transfert Starck, NuPAGE, Life Technologies®). The primary antibodies mouse-anti-phospho-Histone H2A.X (Ser139) clone JBW301 ( 1/1000, Merck Millipore), anti-H3K36me3 (#ab9050, abcam®), anti-H3K27me3 (#9733, Cell Signaling®), anti-MMSET (#65127, Cell Signaling® et ab75359, abcam), anti-MYC (#5605, Cell Signaling®) were incubated in TBS-Tween 20 0.1% (Tris-Buffered Saline, pH 7.4) with 5% non-fat milk or Bovine serum albumin (Sigma-Aldrich, A7906). […] Quantification of protein levels was performed with Image J® software (National Institutes of Health, Bethesda, MD, USA).

In the next series the test system is XG7 and OPM-2 cells. Briefly: Cell death with pan caspase inhibitor Q-VD-Oph pretreatment, AnnexinV-PE. The note with it: 20 μM Q-VD-Oph pretreatment, 48H. The protocol: XG7 and OPM-2 cells were pretreated at least 30 minutes by 20 μM of Q-VD-Oph as pan caspase inhibitor before treatment. Cells were treated as indicated during 48H, effect of Ironomycin on cell death induction was analyzed using AnnexinV-PE staining by flow cytometry (B). N=4.
(§1) Annexin V-PE staining for apoptosis analysis was performed using the “PE Annexin V Apoptosis Detection Kit I” (559763, Becton Dickinson).

The subject of a further series is XG-7 and OPM-2 cell line. Put plainly: Apoptosis with iron supplementation (FeCl3), Annexin V-PE. The note with it: 80 μM deferasirox or 100 nM Ironomycin, 4 hours then 72H with FeCl3 100 μM. The method, then:
XG-7 and OPM-2 cell line was pre-incubated with or without 80 μM of deferasirox or 100 nM of Ironomycin, for 4 hours followed by 72H incubation in presence or absence of FeCl3 (100 μM). Apoptosis was assessed using Annexin V-PE staining by flow cytometry.
as §1

Series [1] relates to pan-caspase, caspase3/7 and caspase 9 activity in OPM-2 cells. Put plainly: Caspase activity by luminometry. The note with it: OPM-2, 48H. The protocol:
OPM-2 cells were treated as indicated during 48H and pan-caspase, caspase3/7 and caspase 9 activity were measured by luminometry. 4-OH-cyclophosphamide (80 μM) was used as a positive control (C).

The test system of the next series is non-MM cells. Briefly: Assay on primary samples of patients, non-MM cells (flow cytometry). The method, then:
Primary MM cells were treated with Ironomycin (A) or AM-23 (B) and incubated during 96H with IL-6. The toxicity on MM cells and non-MM cells was analyzed by flow cytometry and expressed in % of control.
Bone marrow samples were collected after patients' written informed consent in accordance with the Declaration of Helsinki and institutional research board approval from Montpellier University hospital. Cells are obtained from […] of 5 patients with MM. Cells are obtained by density gradient separation and qualified by Flow cytometry.
Cells are cultured in Gibco® RPMI-1640 (Glutamax) medium (#6187-010) with 10% FBS at a density of 0.5×10^6 Cell/mL with 2 ng/mL of interleukin-6. Cells are seeded 24H after thawing and treated with various compounds during 72H.
Total cells were counted with trypan blue and stained with the panel CD38-APC, CD138-PE (Beckman coulter) and analyzed by flow cytometry (Fortessa cytometer, BD Pharmigen). Tumorous MM cells were gated on CD38+ and CD138+.
On the technique in general: In flow cytometry, cells or beads pass a laser one at a time.

Regarding `C#CCN[C@@H]1C=C[C@]2(O[C@H]([C@@H](CC)C(=O)[C@@H](C)[C@@H](O)[C@H](C)[C@@H]3O[C@@H]([C@@H](CC)C(=O)O)CC[C@@H]3C)[C@@H](C)C[C@H]2C)O[C@@]12CC[C@@](C)([C@H]1CC[C@](O)(CC)[C@H](C)O1)O2` [Ironomycin], the MYC protein expression result in the series on MYC is “significant downregulation”. In the series on XG7 and OPM-2 cells, the “inhibition of induced apoptosis by pan caspase inhibitor Q-VD-Oph” value is given as “partially inhibited”. The “effect of iron supplementation on induced apoptosis” value in the series on XG-7 and OPM-2 cell line is listed as “not reversed by Iron supplementation”; in the series with XG-7 and OPM-2 cell line (listed as ironomycin), “did not affect”. For the same compound, the caspase activation entry in series [1] is “activation of caspases 3/7 and 9”. Further, the “toxicity for non-tumoral cells” value in the series on non-MM cells is on record as “without significant toxicity”.
